Where “and” joins values, the source holds several entries; their conditions need not be identical. Identical values can stand only once.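 Each compound was tested at five concentrations against cells in 96-well plates for 48 hours. GI50 is the concentration that inhibits growth by half. TGI: concentration producing complete growth inhibition.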
Experiments:
Test in all cases: NCI anticancer screen, dose series, 48 h; in the data active = GI50 below about 0.43 µM; inactive = the rest
[1] = system: SR leukemia
[2] = system: MOLT-4 leukemia
[3] = system: HS 578T breast
[4] = system: HOP-62 NSCLC
[5] = system: OVCAR-5 ovarian
[6] = system: A498 renal
[7] = system: NCI/ADR-RES ovarian
[8] = system: HL-60(TB) leukemia
[9] = system: SK-OV-3 ovarian
[10] = system: A549 NSCLC
[11] = system: EKVX NSCLC
[12] = system: SK-MEL-5 melanoma
[13] = system: BT-549 breast
[14] = system: M14 melanoma
[15] = system: CAKI-1 renal
[16] = system: LOX IMVI melanoma
[17] = system: PC-3 prostate
[18] = system: DU-145 prostate
[19] = system: MCF7 breast
[20] = system: HCT-116 colon
[21] = system: NCI-H460 lung
[22] = system: SK-MEL-28 melanoma
[23] = system: COLO 205 colon
[24] = system: K-562 leukemia
[25] = system: HOP-92 NSCLC
[26] = system: ACHN renal
[27] = system: UO-31 renal
[28] = system: SF-539 CNS
[29] = system: UACC-62 melanoma
[30] = system: SN12C renal
[31] = system: HT29 colon
[32] = system: 786-0 renal
[33] = system: SF-268 CNS
[34] = system: U251 CNS
[35] = system: CCRF-CEM leukemia
[36] = system: SK-MEL-2 melanoma
[37] = system: NCI-H23 lung
[38] = system: MDA-MB-435
[39] = system: SNB-75 CNS
[40] = system: SNB-19 CNS
[41] = system: NCI-H226 lung
[42] = system: OVCAR-3 ovarian
[43] = system: HCC-2998 colon
[44] = system: NCI-H522 lung
[45] = system: T-47D breast
[46] = system: UACC-257 melanoma
[47] = system: HCT-15 colon
[48] = system: MDA-MB-231 breast
[49] = system: IGROV1 ovarian
[50] = system: KM12 colon
[51] = system: OVCAR-4 ovarian
[52] = system: SF-295 CNS
[53] = system: RXF 393 renal
[54] = system: TK-10 renal
[55] = system: MALME-3M melanoma
[56] = system: OVCAR-8 ovarian
[57] = system: SW-620 colon
[58] = system: RPMI-8226 leukemia

Cc1cc2c(cc1Cl)SC(c1ccccc1O)NS2(=O)=O (stereo not drawn)
> 100 µM: TGI [2] | TGI [3] | TGI [4] | TGI [5] | TGI [6] | TGI [7] | TGI [8] | TGI [9] | TGI [10] | TGI [11] | TGI [12] | TGI [13] | TGI [14] | TGI [15] | TGI [16] | TGI [17] | TGI [18] | TGI [19] | TGI [20] | TGI [21] | TGI [22] | TGI [24] | TGI [25] | TGI [26] | TGI [27] | TGI [28] | TGI [29] | TGI [30] | TGI [31] | TGI [32] | TGI [33] | TGI [34] | TGI [36] | TGI [37] | TGI [38] | TGI [39] | TGI [40] | TGI [41] | TGI [43] | TGI [44] | TGI [46] | TGI [47] | TGI [48] | TGI [49] | TGI [50] | TGI [51] | TGI [52] | TGI [53] | TGI [54] | TGI [56]
77.3 µM: TGI [1]
55.1 µM: TGI [45]
69 µM: TGI [23]
42.5 µM: TGI [57]
78.4 µM: TGI [42]
61.8 µM: TGI [55]
26.3 µM: TGI [35]

CC1Cc2ccccc2N1C(=O)Cc1nc(N2CCOCC2)cc(=O)[nH]1 (stereo not drawn)
0.277 µM and 1.4 µM: GI50 [53]
> 100 µM and 97.7 µM: TGI [52]
73.7 µM and > 100 µM: TGI [16]
57.2 µM and > 94.7 µM: TGI [13]
33.7 µM and 49.8 µM: TGI [3]
46.1 µM and > 75.2 µM: TGI [25]
34.1 µM and > 100 µM: TGI [12]
active: GI50 [6] 0.026 µM and 0.0929 µM
61.9 µM and > 79.1 µM: TGI [55]
0.189 µM and 0.559 µM: TGI [6]
97.3 µM and > 100 µM: TGI [1]
> 100 µM and 98.4 µM: TGI [32]
42.6 µM and 99.7 µM: TGI [45]
inactive: GI50 [1] 22.6 µM and 24.4 µM | GI50 [2] 15.8 µM and 27.5 µM | GI50 [3] 1.75 µM and 4.13 µM | GI50 [4] 53.8 µM and 59.9 µM | GI50 [5] 9.09 µM and 18.2 µM | GI50 [7] 64.5 µM and > 88.6 µM | GI50 [8] 20.7 µM and 25.5 µM | GI50 [9] 4.9 µM and 13.3 µM | GI50 [10] 17.3 µM and 24.5 µM | GI50 [11] 7.06 µM and 17.1 µM | GI50 [12] 13.4 µM and 34.5 µM | GI50 [13] 1.37 µM and 5.58 µM | GI50 [14] 13.8 µM and 27 µM | GI50 [15] 10.5 µM and 28 µM | GI50 [16] 11.6 µM and 16.7 µM | GI50 [17] 2.47 µM and 5.2 µM | GI50 [18] 15.8 µM and 28.1 µM | GI50 [19] 2.3 µM and 4.77 µM | GI50 [20] 6.47 µM and 24.8 µM | GI50 [21] 17.2 µM and 32 µM | GI50 [22] 5.13 µM and 18.5 µM | GI50 [23] 17.4 µM and 53.8 µM | GI50 [24] > 100 µM | GI50 [25] 0.915 µM and 3.04 µM | GI50 [26] 3.94 µM and 8.73 µM | GI50 [27] 2.26 µM and 3.28 µM | GI50 [28] 8.79 µM and 22.4 µM | GI50 [29] 0.856 µM and 1.73 µM | GI50 [30] 9.39 µM and 13.9 µM | GI50 [31] 8.25 µM and 34.5 µM | GI50 [32] 0.639 µM and 3.19 µM | GI50 [33] 18.1 µM and 19.9 µM | GI50 [34] 21.8 µM and 45.9 µM | GI50 [35] 20.7 µM and 46.7 µM | GI50 [36] 37.1 µM and 49.5 µM | GI50 [37] 48.7 µM and > 91.5 µM | GI50 [38] 20.9 µM and 27.7 µM | GI50 [40] 25.3 µM and 45.8 µM | GI50 [41] 36.4 µM and 32.5 µM | GI50 [42] 6.37 µM and 12.8 µM | GI50 [43] 18.1 µM and 28.6 µM | GI50 [44] 25.6 µM and 39.7 µM | GI50 [45] 1.6 µM and 3.73 µM | GI50 [46] 15.9 µM and 20.2 µM | GI50 [47] 16.1 µM and 27.7 µM | GI50 [48] 26.4 µM and 31.3 µM | GI50 [49] 3.09 µM and 9.02 µM | GI50 [50] 20.2 µM and 47.6 µM | GI50 [51] 28.1 µM and 31.4 µM | GI50 [52] 3.15 µM and 6.95 µM | GI50 [54] 14.5 µM and 32.1 µM | GI50 [55] 3.18 µM and 7.81 µM | GI50 [56] 34.8 µM and 32 µM | GI50 [58] 22.9 µM and > 58.3 µM | GI50 [57] 27.2 µM and 72.5 µM
22.8 µM and 52.6 µM: TGI [49]
> 100 µM: TGI [2] | TGI [4] | TGI [5] | TGI [7] | TGI [8] | TGI [9] | TGI [10] | TGI [11] | TGI [14] | TGI [15] | TGI [17] | TGI [18] | TGI [19] | TGI [20] | TGI [21] | TGI [22] | TGI [24] | TGI [26] | TGI [27] | TGI [28] | TGI [29] | TGI [30] | TGI [31] | TGI [33] | TGI [34] | TGI [35] | TGI [36] | TGI [37] | TGI [38] | TGI [40] | TGI [41] | TGI [42] | TGI [43] | TGI [44] | TGI [46] | TGI [47] | TGI [48] | TGI [51] | TGI [54] | TGI [56] | TGI [58] | TGI [57]
46.2 µM and > 100 µM: TGI [23]
> 100 µM and 23.3 µM: TGI [39]
0.188 µM and 1.16 µM: GI50 [39]
55.1 µM and > 100 µM: TGI [50]
8.17 µM and 16.2 µM: TGI [53]

Source: PubChem BioAssay (NCI)
